# Literature values, collected in US12296049B2, “Immediate release dosage form” (Kenvue Brands LLC, priority 2019, dated 2025).
# Settings: at lower acidic pH it precipitates
structure (smiles),measurement,value
COc1ccc2cc([C@H](C)C(=O)O)ccc2c1 [naproxen sodium],pH at which the drug stays in solution,above 5.4
